Consider 15 compounds from patent US8669361B2, “Pyrazol-4-yl-heterocyclyl-carboxamide compounds and methods of use” (Genentech, Inc., priority 2010, dated 2014).

For assay [1], the system named is MM1.S (multiple myeloma) cells. Kind of assay: In vitro cell proliferation potency assay, Cell Titer Glo (Example 902). The assay is classed as cell-based. The conditions noted are these: Homo sapiens, incubated for 72 hours, read-out: Prolif MM1S ATP (EC50). As for the experimental part:
(§1) BaF3 parental line was obtained from the DSMZ repository. BaF3 lines transfected with PIM 1 or PIM2 were generated. Mouse IL-3 was purchased from R&D Systems. G418 was purchased from Clontech. Media for BaF3 parental line contained RPMI, 10% FBS, 2 mM L-Glutamine, 2 ng/mL mIL-3. Media for BaF3 PIM1 & 2 lines contained RPMI, 10% FBS, 2 mM L-Glutamine, […]. Media for MM1.S (multiple myeloma cells) line contained RPMI, 10% FBS, 2 mM L-Glutamine.
(§2) BaF3, a murine interleukin-3 dependent pro-B cell line, parental cells, BaF3 PIM1 cells, BaF3 PIM2 cells, and MM1.S (multiple myeloma) cells were seeded at 2 k/well, 5 k/well, 5 k/well, and 10 k/well respectively, in a 384-well plate, at 45 μL/well. Test compound was added at 5 μL/well. BaF3 cells (parental and transfected) were incubated overnight, while MM1.S cells were incubated for 72 hours at 37° C., 5% CO2. Cell Titer Glo Reagent (Promega) was added at 50 μL/well, the plates were incubated for 30 minutes, and their luminescence read on an HT Analyst. IC50/EC50 values for the test compound were calculated.

The subject of assay [2] is BaF3 PIM1 cells. Described as above. The assay is classed as cell-based, murine. The following applies: Mus musculus. Here is the method: as §1, §2
Assay [3] deals with BaF3 parental cells. The assay is described as above. The following applies: Mus musculus. The assay is classed as cell-based, murine. Here is the method:
as §1, §2

Assay [4] concerns the target PIM1 (Homo sapiens (Human), UniProt P11309). Kind of assay: Pim kinase binding activity, Caliper LC3000 microfluidic peptide phosphorylation assay (Example 901). The assay is classed as biochemical. The following applies: 20 pM PIM1, 1 μM FAM-peptide, 10 μM ATP, 90 minutes at room temperature; read-out: PIM1 LC3K (KI). Here is the method:
(§3) PIM-1, -2, and -3 enzymes were generated as fusion proteins expressed in bacteria and purified by IMAC column chromatography (Sun, X., Chiu, J. F., and He, Q. Y. (2005) Expert Rev. Proteomics, 2:649-657). A fluorescent-labeled Pim-specific peptide substrate, was custom synthesized by American Peptide Company (Sunnyvale, Calif.). Reaction Buffer contained 10 mM HEPES, pH 7.2, 10 mM MgCl2, 0.01% Tween 20, 2 mM DTT. Termination Buffer contained 190 mM HEPES, pH 7.2, 0.015% Brij-35, 0.2% Coating Reagent 3 (Caliper Life Sciences, Hopkinton, Mass.), 20 mM EDTA. Separation Buffer contained 100 mM HEPES, pH 7.2, 0.015% Brij-35, 0.1% Coating Reagent 3, 1:200 Coating Reagent 8 (Caliper Life Sciences, Hopkinton, Mass.), 10 mM EDTA and 5% DMSO.
(§4) PIM reactions were carried out in a final volume of 10 μL per well in a 384-well plate. A standard enzymatic reaction, initiated by the addition of 5 μL 2×ATP and test compound to 5 μL of 2× enzyme and FAM-peptide, contained 20 pM PIM1, 50 pM PIM2, or 55 pM PIM3, 1 μM FAM-peptide, and 10 μM ATP, in Reaction Buffer. After 90 minutes of incubation at room temperature, the phosphorylation reaction was stopped by the addition of 10 μL Termination Buffer. The product and substrate in each independent reaction were separated on a 12-sipper microfluidic chip (Caliper Life Sciences, Hopkinton, Mass.) run on a Caliper LC3000® (Caliper Life Sciences, Hopkinton, Mass.). The separation of product and substrate was optimized by choosing voltages and pressure using Caliper's Optimizer software (Hopkinton, Mass.). The separation conditions used a downstream voltage of −500V, an upstream voltage of −2150V, and a screening pressure of −1.2 psi. The product and substrate fluorophore were excited at 488 nm and detected at 530 nm. Substrate conversion was calculated from the electropherogram using HTS Well Analyzer software (Caliper Life Sciences, Hopkinton, Mass.). Ki values for the test compound were calculated.

Assay [5] has as its target PIM3 (Homo sapiens (Human), UniProt Q86V86). The description is as above. The assay is classed as biochemical. The conditions noted are these: 55 pM PIM3, 1 μM FAM-peptide, 10 μM ATP, 90 minutes at room temperature; read-out: PIM3 LC3K (KI). Here is the method:
as §3, §4

The target of assay [6] is PIM2 (Homo sapiens (Human), UniProt Q9P1W9). Described as above. The following applies: 50 pM PIM2, 1 μM FAM-peptide, 10 μM ATP, 90 minutes at room temperature; read-out: PIM2 LC3K (KI). The assay is classed as biochemical. Here is the method:
A fluorescent-labeled Pim-specific peptide substrate, was custom synthesized by American Peptide Company (Sunnyvale, Calif.). Reaction Buffer contained 10 mM HEPES, pH 7.2, 10 mM MgCl2, 0.01% Tween 20, 2 mM DTT. Termination Buffer contained 190 mM HEPES, pH 7.2, 0.015% Brij-35, 0.2% Coating Reagent 3 (Caliper Life Sciences, Hopkinton, Mass.), 20 mM EDTA. Separation Buffer contained 100 mM HEPES, pH 7.2, 0.015% Brij-35, 0.1% Coating Reagent 3, 1:200 Coating Reagent 8 (Caliper Life Sciences, Hopkinton, Mass.), 10 mM EDTA and 5% DMSO.
as §4, with “A standard enzymatic reaction, initiated by the addition of 5 μL 2×ATP and test compound to 5 μL of 2× enzyme and FAM-peptide, contained 20 pM PIM1, 50 pM PIM2, or 55 pM PIM3, 1 μM FAM-peptide, and 10 μM ATP, in Reaction Buffer.” left out, “The product and substrate fluorophore were excited at 488 nm and detected at 530 nm.” left out

[7] abbreviates: BaF3 line transfected with PIM1, incubated overnight, read-out: Prolif BaF3 PIM1 (IC50).
Setting [8] is: BaF3 parental line, medium with 2 ng/mL mIL-3, incubated overnight, read-out: Prolif BaF3 IL3 (IC50).

The structures appear in SMILES notation. Like-named read-outs stand apart in the source and are kept apart here.

PIM1, sequence (P11309 whole entry, the tested form may be a part): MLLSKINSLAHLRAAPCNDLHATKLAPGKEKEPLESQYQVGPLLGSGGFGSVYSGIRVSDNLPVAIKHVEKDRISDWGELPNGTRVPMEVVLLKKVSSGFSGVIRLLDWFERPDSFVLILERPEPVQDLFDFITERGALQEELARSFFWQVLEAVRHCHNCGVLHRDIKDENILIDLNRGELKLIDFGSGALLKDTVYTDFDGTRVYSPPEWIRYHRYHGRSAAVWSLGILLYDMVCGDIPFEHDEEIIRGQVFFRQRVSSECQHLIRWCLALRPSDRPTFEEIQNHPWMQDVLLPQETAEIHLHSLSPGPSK
PIM2, sequence (Q9P1W9 whole entry): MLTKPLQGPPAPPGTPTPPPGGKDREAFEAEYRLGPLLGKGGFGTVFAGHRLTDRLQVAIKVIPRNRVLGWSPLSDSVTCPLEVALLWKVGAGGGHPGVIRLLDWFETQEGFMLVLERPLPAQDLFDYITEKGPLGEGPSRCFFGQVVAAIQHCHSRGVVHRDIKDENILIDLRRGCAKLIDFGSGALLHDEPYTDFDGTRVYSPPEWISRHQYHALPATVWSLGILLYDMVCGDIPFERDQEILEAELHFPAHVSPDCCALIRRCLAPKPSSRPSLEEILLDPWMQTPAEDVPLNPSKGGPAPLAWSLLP

Turning to `Cn1ncc(NC(=O)c2nc(-c3c(F)cccc3F)sc2N)c1N1CCC[C@H](N)C1` [Example 106, (S)-5-amino-N-(5-(3-aminopiperidin-1-yl)-1-methyl-1H-pyrazol-4-yl)-2-(2,6-difluorophenyl)thiazole-4-carboxamide], the EC50 in assay [1] stood at 4200 nM. Also, the IC50 in assay [2] (setting [7]) amounted to 3800 nM; in assay [3] (setting [8]), 6600 nM.
Take `Cn1ncc(NC(=O)c2nc(-c3ccccc3F)ccc2N)c1N1CCCC(N)CC1` (stereo not shown) [Example 114, 3-amino-N-(5-(4-aminoazepan-1-yl)-1-methyl-1H-pyrazol-4-yl)-6-(2-fluorophenyl)picolinamide]: the IC50 in assay [2] (setting [7]) worked out at 2300 nM; in assay [3] (setting [8]), 5500 nM. Moreover, the Ki in assay [4] is 0.115 nM; in assay [5] it was 0.159 nM; in assay [6] it was 1.65 nM.
Regarding `Cn1ncc(NC(=O)c2nc(-c3c(F)cccc3F)sc2N)c1OCC1CCNCC1` [Example 115, 5-amino-2-(2,6-difluorophenyl)-N-(1-methyl-5-(piperidin-4-ylmethoxy)-1H-pyrazol-4-yl)thiazole-4-carboxamide], the figures for the IC50 in assay [2] (setting [7]) and in assay [3] (setting [8]) were 4500 nM and 6200 nM, respectively. Further, the Ki stood at 1.14 nM in assay [4], 1.08 nM in assay [5] and 46.1 nM in assay [6].
As for `Cn1ncc(NC(=O)c2nc(-c3ccccc3F)ccc2N)c1OCC1CCNCC1` [Example 117, 3-amino-6-(2-fluorophenyl)-N-(1-methyl-5-(piperidin-4-ylmethoxy)-1H-pyrazol-4-yl)picolinamide], the IC50 is 4900 nM in assay [2] (BaF3, read-out: Prolif BaF3 PIM1 (IC50)) and > 25000 nM in assay [3] (BaF3, read-out: Prolif BaF3 IL3 (IC50)).
As for `Cn1ncc(NC(=O)c2nc(-c3ccccc3F)cnc2N)c1N1CCC[C@H](N)C1` [Example 119, (S)-3-amino-N-(5-(3-aminopiperidin-1-yl)-1-methyl-1H-pyrazol-4-yl)-6-(2-fluorophenyl)pyrazine-2-carboxamide], the half-maximal inhibitory concentration (IC50) was 1300 nM in assay [2] (setting [7]) and 5200 nM in assay [3] (setting [8]). Besides, the Ki in assay [5] was 0.305 nM; in assay [6], 2.13 nM.
For the compound `Cn1ncc(NC(=O)c2nc(-c3c(F)cccc3F)sc2N)c1OC1CCNCC1` [Example 120, 5-amino-2-(2,6-difluorophenyl)-N-(1-methyl-5-(piperidin-4-yloxy)-1H-pyrazol-4-yl)thiazole-4-carboxamide], the figures for the IC50 in assay [2] (setting [7]) and in assay [3] (setting [8]) were 7800 nM and 25000 nM, respectively. In addition, the Ki in assay [4] came out at 1.97 nM; in assay [5], 1.1 nM.
On to `Cn1ncc(NC(=O)c2nc(-c3ccccc3F)cnc2N)c1N1CCC(N)CC1` [Example 122, 3-amino-N-(5-(4-aminopiperidin-1-yl)-1-methyl-1H-pyrazol-4-yl)-6-(2-fluorophenyl)pyrazine-2-carboxamide], for which the IC50 in assay [2] (setting [7]) is 1100 nM; in assay [3] (setting [8]), 11900 nM. Further, the Ki is 0.281 nM in assay [4], 0.962 nM in assay [5] and 14.7 nM in assay [6].
`Cn1ncc(NC(=O)c2nc(-c3ccccc3F)ccc2N)c1N1CCC[C@H](CN)C1` [Example 129, (R)-3-amino-N-(5-(3-(aminomethyl)piperidin-1-yl)-1-methyl-1H-pyrazol-4-yl)-6-(2-fluorophenyl)picolinamide]: the values for the IC50 in assay [2] (setting [7]) and in assay [3] (setting [8]) were 5100 nM and 21500 nM, respectively. The Ki was determined as 0.343 nM in assay [4], 1.33 nM in assay [5] and 10.2 nM in assay [6].
Regarding `Cn1ncc(NC(=O)c2nc(-c3c(F)cccc3F)sc2N)c1N1CCC(CN)CC1` [Example 133, 5-amino-N-(5-(4-(aminomethyl)piperidin-1-yl)-1-methyl-1H-pyrazol-4-yl)-2-(2,6-difluorophenyl)thiazole-4-carboxamide], the IC50 in assay [2] (setting [7]) was 258 nM; in assay [3] (setting [8]), 25000 nM.
For the compound `Cn1ncc(NC(=O)c2nc(-c3ccccc3F)ccc2N)c1N1CC[C@@H](CN)C1` [Example 134, (S)-3-amino-N-(5-(3-(aminomethyl)pyrrolidin-1-yl)-1-methyl-1H-pyrazol-4-yl)-6-(2-fluorophenyl)picolinamide], the results for the IC50 in assay [2] (setting [7]) and in assay [3] (setting [8]) were 1400 nM and 7800 nM, respectively.
As for `Cn1ncc(NC(=O)c2nc(-c3c(F)cccc3F)sc2N)c1N1CC[C@H](CN)C1` [Example 135, (R)-5-amino-N-(5-(3-(aminomethyl)pyrrolidin-1-yl)-1-methyl-1H-pyrazol-4-yl)-2-(2,6-difluorophenyl)thiazole-4-carboxamide], the IC50 was determined as 660 nM in assay [2] (setting [7]) and 9300 nM in assay [3] (setting [8]). Besides, the Ki was determined as 0.506 nM in assay [4], 0.344 nM in assay [5] and 10.6 nM in assay [6].
Take `Cn1ncc(NC(=O)c2nc(-c3ccccc3F)ccc2N)c1N1CC[C@H](CN)C1` [Example 136, (R)-3-amino-N-(5-(3-(aminomethyl)pyrrolidin-1-yl)-1-methyl-1H-pyrazol-4-yl)-6-(2-fluorophenyl)picolinamide]: the IC50 in assay [2] (setting [7]) was found to be 634 nM; in assay [3] (setting [8]), 5900 nM.
For `Cn1ncc(NC(=O)c2nc(-c3ccccc3F)cnc2N)c1N1CCC[C@@H](N)CC1` [Example 141, (R)-3-amino-N-(5-(4-aminoazepan-1-yl)-1-methyl-1H-pyrazol-4-yl)-6-(2-fluorophenyl)pyrazine-2-carboxamide], the IC50 was determined as 219 nM in assay [2] (setting [7]) and 1100 nM in assay [3] (setting [8]). The Ki in assay [5] amounted to 0.295 nM; in assay [6], 3.52 nM.
As for `Cn1ncc(NC(=O)c2nc(-c3ccccc3F)cnc2N)c1N1CCC[C@H](N)CC1` [Example 143, (S)-3-amino-N-(5-(4-aminoazepan-1-yl)-1-methyl-1H-pyrazol-4-yl)-6-(2-fluorophenyl)pyrazine-2-carboxamide], the results for the IC50 in assay [2] (setting [7]) and in assay [3] (setting [8]) were 377 nM and 1100 nM, respectively.
For `Cn1ncc(NC(=O)c2nc(-c3ccccc3F)ccc2N)c1N1CCC[C@@H](N)CC1` [Example 145, (R)-3-amino-N-(5-(4-aminoazepan-1-yl)-1-methyl-1H-pyrazol-4-yl)-6-(2-fluorophenyl)picolinamide], in that order: 1000 nM and 3800 nM.
